# Earlier results in article PMC9014845 (Clinical cancer research : an official journal of the …, 2019).
# Tests used:
# [1] = system: patients with FGFR alterations; conditions: 23 patients with FGFR alterations; cited from earlier work
# [2] = system: patients with FGFR alterations; conditions: cited from earlier work
Compound,Patients with stable disease for >3 months [1] [patients],Overall DCR [2] [%]
COc1cc(OC)cc(N(CCNC(C)C)c2ccc3ncc(-c4cnn(C)c4)nc3c2)c1 [JNJ-42756493],8,
CCN1CCN(c2ccc(Nc3cc(N(C)C(=O)Nc4c(Cl)c(OC)cc(OC)c4Cl)ncn3)cc2)CC1 [BGJ398],,37
